# Positions of bridges follow the written chain, without caps; N, C: chain ends. Residues, ends and D or L forms follow the SMILES beside them.
# Columns and labels:
# [1] = molecular target: T1, rV2 receptor (Rattus norvegicus, UniProt Q00788); test: Luciferase reporter gene assay, rat V2; type: cell-based; conditions: read-out: % MPE
# T1 construct: expressed in transfected cells; host or cells: HEK-293 cells (ATCC), transient
# Protocol: (§1) Cell Lines. Studies were conducted with cell lines expressing rat (r) or human (h) Via, V1b, V2, or OT receptors. For the experiments with human receptors, human embryonic kidney (HEK)-flp-in cells stably expressing the lacZ-Zeocin™ fusion gene were used for expression of hV1a and hV1b. These cells were designed for use with the Flp-In™ expression vector containing the gene of interest (here hV1a or hV1b) and the Flp recombinase expression plasmid, pOG44. For hV2 and hOTR, HEK-293 cells transiently expressing hV2 were used.
# (§2) Functional Cell-Based Assays.
# [2] = molecular target: T2, rOTR (Rattus norvegicus, UniProt P70536); test: Luciferase reporter gene assay, rat OT; type: cell-based; conditions: read-out: % MPE
# T2 construct: expressed in transfected cells
# T2 sequence (P70536 1-388): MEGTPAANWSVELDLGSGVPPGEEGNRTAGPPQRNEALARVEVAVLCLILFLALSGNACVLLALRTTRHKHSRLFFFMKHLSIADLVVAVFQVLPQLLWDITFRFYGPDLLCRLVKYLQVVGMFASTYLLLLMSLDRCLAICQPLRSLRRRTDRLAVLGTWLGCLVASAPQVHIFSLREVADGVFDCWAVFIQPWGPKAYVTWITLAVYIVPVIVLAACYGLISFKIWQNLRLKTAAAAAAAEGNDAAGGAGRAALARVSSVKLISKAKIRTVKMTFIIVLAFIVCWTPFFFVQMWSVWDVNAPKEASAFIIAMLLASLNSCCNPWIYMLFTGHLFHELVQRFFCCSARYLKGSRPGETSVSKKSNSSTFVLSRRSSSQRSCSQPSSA
# Protocol: as §1, §2
# [3] = system: skin blood flow (SBF); test: Skin blood flow (SBF), laser Doppler, anesthetized Wistar rats, IV infusion; type: in vivo, rat
# Protocol: This study was performed over multiple experiments using a total of 48 adult male Wistar rats. […] Compounds were infused via an IV catheter at six sequentially increasing doses.
# (§3) On the day of experimentation animals were anesthetized and instrumented. A tracheostomy was performed to allow assisted respiration and three catheters were placed. Laser Doppler probes were positioned on a shaved portion of the animal's lower abdominal skin for blood-flow measurements. Ventilation was initiated, and baseline readings for the primary parameter of skin blood flow (SBF) were recorded. Readings for the secondary parameters were also recorded: (1) blood lactate concentration, (2) mean arterial pressure (MAP), and (3) blood pH. Data collection was performed continuously for SBF and MAP using NOTOCORD-hem™ (Instem), and blood samples were taken at each compound dose and immediately analyzed using an i-STAT® meter.
# After the final dose administration, animals were euthanized and a final SBF measurement was recorded to detect any signal from the flow probe after the animal's heart stopped beating to control for a signal not attributed to blood flow. Animal body temperature, pulse, and ventilation adequacy were monitored throughout the procedure.
# [4] = system: blood lactate; test: Blood lactate concentration, anesthetized Wistar rats, IV infusion; type: in vivo, rat
# Protocol: This study was performed over multiple experiments using a total of 48 adult male Wistar rats. […] Compounds were infused via an IV catheter at six sequentially increasing doses. A group of vehicle-administered animals received vehicle throughout the study and data were reported from intervals timed analogously with the dose-response in compound 1-administered animals.
# as §3
# [5] = system: V1a, V1b, and V2 receptors; conditions: cited from earlier work
# [6] = system: methionine/choline-deficient (MCD) diet rats; test: MAP / ΔMAP in methionine/choline-deficient (MCD) diet rats; type: in vivo, rat; conditions: for Δ MAP (mean): 100 μg/kg, IA, MCD diet rats
# Protocol: The terlipressin dose was 100 μg/kg.
# Data were evaluated as change […] from baseline.
# [7] = system: methionine/choline-deficient (MCD) diet rats; test: ΔPP in methionine/choline-deficient (MCD) diet rats; type: in vivo, rat; conditions: 100 μg/kg, IA, MCD diet rats
# [8] = system: mean arterial pressure (MAP); test: Telemetry: ΔMAP in cynomolgus monkeys, Compound 1 (SC) versus terlipressin (IV); type: in vivo, cynomolgus monkey
# Protocol: The in-life portion of the study was performed over multiple dosing sessions using six non-naive adult male cynomolgus monkeys. Animals were previously (3-4 weeks before study start) instrumented with indwelling pressure telemetry devices and trained to be restrained in chairs. Animals had access to food and drinking water ad libitum.
# Stock solutions were diluted in saline on the day of administration. Animals with indwelling pressure telemetry devices were trained to be restrained in chairs for 8-h periods.
# On the day of administration, animals were restrained, and telemetric measurements were collected continuously starting ≥2 h before administration. Baseline values of arterial pressure (diastolic and systolic), heart rate, and body temperature were obtained.
# The data reported herein were collected over 19 dosing sessions of four animals each, using a total of six monkeys. Animals were repeat dosed in a crossover design with at least one animal receiving vehicle for each round; the animal receiving vehicle was varied between rounds. A 48- to 72-h washout period was used between dosing sessions. Animals were observed by camera for ~1 h before dosing (covering the baseline period) and up to 3 h after dosing.
# T1 sequence (Q00788 whole entry): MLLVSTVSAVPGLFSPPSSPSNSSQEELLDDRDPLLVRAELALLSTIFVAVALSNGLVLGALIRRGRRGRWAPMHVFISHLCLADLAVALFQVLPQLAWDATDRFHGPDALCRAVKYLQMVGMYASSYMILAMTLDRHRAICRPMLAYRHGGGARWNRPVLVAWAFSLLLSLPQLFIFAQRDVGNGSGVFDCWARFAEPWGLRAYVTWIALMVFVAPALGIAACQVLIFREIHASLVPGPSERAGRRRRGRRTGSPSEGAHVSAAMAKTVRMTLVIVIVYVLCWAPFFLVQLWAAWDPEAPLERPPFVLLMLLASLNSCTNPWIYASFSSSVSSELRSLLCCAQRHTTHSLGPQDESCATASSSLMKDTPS
compound,measurement,setting,value
"NC(=O)CC[C@@H]1NC(=O)[C@H](Cc2ccccc2)NC(=O)[C@H](Cc2ccc(O)cc2)NC(=O)[C@@H](N)CSSC[C@@H](C(=O)N2CCC[C@H]2C(=O)N[C@@H](CCCN=C(N)N)C(=O)NCC(N)=O)NC(=O)[C@H](CC(N)=O)NC1=O [AVP, arginine vasopressin, reference compound]",Emax,[1],98%
same,Emax,[2],82%
same,SBF ED50,[3],12.6 pmol/kg/min
same,"decrease in skin blood flow, approximate maximum",[3],about 90%
same,greatest percent change from baseline in skin flow,[3],−89.5%
same,blood lactate concentration,[4]; 3 pmoL/kg/min IV,1.34 mM
same,blood lactate concentration,[4]; 600 pmoL/kg/min IV,4.27 mM
same,increase in blood lactate levels,[4]; IV,≥ 2 fold
same,effect on blood lactate concentration,"[4]; IV, up to maximum dose tested",significantly elevated
"NCCCC[C@H](NC(=O)[C@@H]1CCCN1C(=O)[C@@H]1CSSC[C@H](N)C(=O)N[C@@H](Cc2ccc(O)cc2)C(=O)N[C@@H](Cc2ccccc2)C(=O)N[C@@H](CCC(N)=O)C(=O)N[C@@H](CC(N)=O)C(=O)N1)C(=O)NCC(N)=O [Lysine vasopressin (LVP), Lysine vasopressin]",receptor agonism type,"[5]; V1a, V1b, and V2 receptors",full agonist
"NCCCC[C@H](NC(=O)[C@@H]1CCCN1C(=O)[C@@H]1CSSC[C@H](NC(=O)CNC(=O)CNC(=O)CN)C(=O)N[C@@H](Cc2ccc(O)cc2)C(=O)N[C@@H](Cc2ccccc2)C(=O)N[C@@H](CCC(N)=O)C(=O)N[C@@H](CC(N)=O)C(=O)N1)C(=O)NCC(N)=O [Terlipressin, reference compound] (H-GGGCYFQNCPKG-NH2; disulfide 4-9)",Δ MAP (mean),[6]; 0 min,0.0 mmHg
same,Δ MAP (mean),[6]; 1 min,6.1 mmHg
same,Δ MAP (mean),[6]; 10 min,32.0 mmHg
same,Δ MAP (mean),[6]; 90 min,5.2 mmHg
same,"rapid increase in MAP, up to","[6]; intra-arterial, FIG. 34",about 35 mmHg
same,serious adverse events,"[5]; gastrointestinal disorders, sepsis, respiratory failure",associated with serious adverse events
same,effect on ascites formation,"[5]; non-selective full agonist, continuous i.v. infusion",reduced ascites formation
same,short-term mortality,"[5]; plus albumin, HRS-AKI, versus placebo",reduces short-term mortality
same,Δ PP (mean),[7]; 0 min,0.0 mmHg
same,Δ PP (mean),[7]; 1 min,−1.5 mmHg
same,Δ PP (mean),[7]; 2 min,−2.1 mmHg
same,Δ PP (mean),[7]; 3 min,−2.3 mmHg
same,Δ PP (mean),[7]; 5 min,−2.4 mmHg
same,Δ PP (mean),[7]; 7 min,−2.5 mmHg
same,Δ PP (mean),[7]; 10 min,−2.4 mmHg
same,Δ PP (mean),[7]; 15 min,−2.5 mmHg
same,Δ PP (mean),[7]; 20 min,−2.6 mmHg
same,Δ PP (mean),[7]; 30 min,−2.5 mmHg
same,Δ PP (mean),[7]; 60 min,−2.8 mmHg
same,Δ PP (mean),[7]; 90 min,−0.8 mmHg
same,"average increase in MAP, 30 min to 5 h",[8]; IV 0.03 mg/kg,6.0 mmHg
same,maximum MAP values (increase from baseline),[8]; IV 0.03 mg/kg (vehicle 22.2),29.6±3.6 mmHg
same,"average increase in MAP, 30 min to 5 h",[8]; IV 0.09 mg/kg,5.8 mmHg
same,maximum MAP values (increase from baseline),[8]; IV 0.09 mg/kg (vehicle 22.2),29.9±6.2 mmHg
same,"average increase in MAP, 30 min to 5 h",[8]; IV 0.17 mg/kg,14.6 mmHg
same,maximum MAP values (increase from baseline),[8]; IV 0.17 mg/kg (vehicle 22.2),50.8±5.6 mmHg
same,"average increase in MAP, 30 min to 5 h",[8]; IV 0.34 mg/kg,14.7 mmHg
same,maximum MAP values (increase from baseline),[8]; IV 0.34 mg/kg (vehicle 22.2),41.2±7.5 mmHg
same,time of maximum ΔMAP,"[8]; IV, all groups",5 to 30 min
same,ΔMAP by 150 min,"[8]; IV, all groups",negligible

# Source: patent publication US20260315609A1, “MIXED VASOPRESSIN RECEPTOR AGONIST-ANTAGONIST FOR TREATING END-STAGE LIVER DISEASE AND COMPLICATIONS ASSOCIATED THEREOF” (FERRING B.V., priority 2022, published 2026)
